We go through 2 compounds from patent US8377957B2, “Hydroxy and alkoxy substituted 1H-imidazoquinolines and methods” (3M Innovative Properties Company, priority 2005, dated 2013).

In general, melting point refers to the temperature, or range, at which the solid turns liquid. `C[C@@H](c1ccccc1)n1c(O)nc2c(N)nc3ccccc3c21` [Example 5, 4-Amino-1-[(1S)-1-phenylethyl]-1H-imidazo[4,5-c]quinolin-2-ol] gave a melting point of 292 to 295 °C.

The compound `COc1nc2c(N)nc3ccccc3c2n1Cc1ccccc1` [Example 7, 1-Benzyl-2-methoxy-1H-imidazo[4,5-c]quinolin-4-amine] came in with a melting point of 240 to 242 °C.
